By EC50 is commonly meant the midpoint of the concentration-response curve. A lower EC50 goes with greater potency.

Series [1] addresses T1, ExsA (Pseudomonas aeruginosa, UniProt P26993).
T1 construct: made in house
T1 sequence (P26993 1-278): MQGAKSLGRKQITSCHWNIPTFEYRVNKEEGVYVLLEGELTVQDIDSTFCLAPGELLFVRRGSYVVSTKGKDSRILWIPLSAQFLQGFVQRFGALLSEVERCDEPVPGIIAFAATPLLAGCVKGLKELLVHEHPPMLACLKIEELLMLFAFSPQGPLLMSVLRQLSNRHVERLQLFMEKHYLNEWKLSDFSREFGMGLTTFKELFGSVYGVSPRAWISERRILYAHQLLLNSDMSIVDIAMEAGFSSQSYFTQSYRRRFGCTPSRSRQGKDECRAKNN
Description: In vitro activity of Mar inhibitors against ExsA: cell-free DNA binding assay. Particulars: purified ExsA from P. aeruginosa, inhibition of DNA binding in vitro.

For series [2], the system named is Yersinia pseudotuberculosis.
Series [3] deals with LcrF (VirF) (Yersinia pestis, UniProt P28808). Kind of series: biochemical. It counts as binding, Y. pseudotuberculosis.
Sequence of LcrF (VirF) (P28808 whole entry, looked up): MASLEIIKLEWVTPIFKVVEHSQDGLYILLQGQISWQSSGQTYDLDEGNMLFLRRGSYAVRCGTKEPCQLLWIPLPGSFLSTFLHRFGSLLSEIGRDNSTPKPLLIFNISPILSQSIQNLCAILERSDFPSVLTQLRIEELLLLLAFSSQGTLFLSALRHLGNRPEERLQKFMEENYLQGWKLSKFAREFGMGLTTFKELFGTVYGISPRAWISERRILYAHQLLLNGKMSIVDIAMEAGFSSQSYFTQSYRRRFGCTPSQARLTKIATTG

For `Cc1cc(-c2nc3ccc([N+](=O)[O-])cc3n2O)ccc1NC(=O)/C=C/c1ccc(F)cc1` [BB], the EC50 in series [1] is above 25.1 µM; in series [3], 10.1 to 25 µM. The “Cytotoxicity at 50 μg/mL Yersinia” value in series [2] is “* (key: *: percent cytotoxicity above 75% at 50 μg/mL; **: cytotoxicities below 75% at 50 μg/mL)”. For `O=C(/C=C/c1ccc(F)cc1)Nc1ccc(-c2nc3ccncc3n2O)cc1` [AY], the “Cytotoxicity at 50 μg/mL Yersinia” value in series [2] is listed as “* (key: *: percent cytotoxicity above 75% at 50 μg/mL; **: cytotoxicities below 75% at 50 μg/mL)”. For `NC(=O)c1ccc2nc(-c3ccc(NC(=O)c4ccc(F)cc4)cc3)n(O)c2c1` [Compound AD, 2-[4-(4-Fluoro-benzoylamino)-phenyl]-3-hydroxy-3H-benzoimidazole-5-carboxylic Acid Amide], the “Cytotoxicity at 50 μg/mL Yersinia” value in series [2] was “* (key: *: percent cytotoxicity above 75% at 50 μg/mL; **: cytotoxicities below 75% at 50 μg/mL)”. Turning to `CC(=O)c1ccc(C(=O)Nc2ccc(-c3nc4ccc([N+](=O)[O-])cc4n3O)cc2C)cc1` [BF], the EC50 in series [1] is below 10 µM. The “Cytotoxicity at 50 μg/mL Yersinia” value in series [2] is listed as “* (key: *: percent cytotoxicity above 75% at 50 μg/mL; **: cytotoxicities below 75% at 50 μg/mL)”. Turning to `O=C(Nc1ccc(-c2nc3ccc([N+](=O)[O-])cc3n2OCP(=O)(O)O)cc1)c1ccc(F)cc1` [AK], the “Cytotoxicity at 50 μg/mL Yersinia” value in series [2] is “* (key: *: percent cytotoxicity above 75% at 50 μg/mL; **: cytotoxicities below 75% at 50 μg/mL)”. With `O=C(O)COn1c(-c2ccc(NC(=O)c3ccc(F)cc3)cc2)nc2ccc([N+](=O)[O-])cc21` [Compound V, {2-[4-(4-Fluoro-benzoylamino)-phenyl]-6-nitro-benzoimidazol-1-yloxy}-acetic Acid], in series [2], the “Cytotoxicity at 50 μg/mL Yersinia” value was “* (key: *: percent cytotoxicity above 75% at 50 μg/mL; **: cytotoxicities below 75% at 50 μg/mL)”. The EC50 in series [3] is above 25.1 µM. On to `NC(=NO)c1ccc2nc(-c3ccc(NC(=O)c4ccc(F)cc4)cc3)n(O)c2c1` [M], for which the EC50 in series [1] and in series [3] was above 25.1 µM throughout. In addition, the “Cytotoxicity at 50 μg/mL Yersinia” value in series [2] is “* (key: *: percent cytotoxicity above 75% at 50 μg/mL; **: cytotoxicities below 75% at 50 μg/mL)”. For the compound `O=C(Nc1ccc(-c2nc3ccc([N+](=O)[O-])cc3n2O)nc1)c1ccc(F)cc1` [AF], the EC50 in series [1] and in series [3] was above 25.1 µM throughout. In addition, the “Cytotoxicity at 50 μg/mL Yersinia” value in series [2] is on record as “* (key: *: percent cytotoxicity above 75% at 50 μg/mL; **: cytotoxicities below 75% at 50 μg/mL)”. `CCOP(=O)(COn1c(-c2ccc(NC(=O)c3ccc(F)cc3)cc2)nc2ccc([N+](=O)[O-])cc21)OCC` [AU]: the “Cytotoxicity at 50 μg/mL Yersinia” value in series [2] is “* (key: *: percent cytotoxicity above 75% at 50 μg/mL; **: cytotoxicities below 75% at 50 μg/mL)”.

Regarding `O=C(Nc1ccc2nc(-c3ccc([N+](=O)[O-])cc3)n(O)c2c1)c1ccc(F)cc1` [L], the “Cytotoxicity at 50 μg/mL Yersinia” value in series [2] was “* (key: *: percent cytotoxicity above 75% at 50 μg/mL; **: cytotoxicities below 75% at 50 μg/mL)”.

In the case of `CC(C)c1ccc(/C=C/C(=O)Nc2ccc(-c3nc4ccc([N+](=O)[O-])cc4n3O)cc2)cc1` [H], the EC50 in series [1] and in series [3] was above 25.1 µM in each case. The “Cytotoxicity at 50 μg/mL Yersinia” value in series [2] was “* (key: *: percent cytotoxicity above 75% at 50 μg/mL; **: cytotoxicities below 75% at 50 μg/mL)”.

Take `C/C(=C\c1ccccc1)C(=O)Nc1ccc(-c2nc3ccc([N+](=O)[O-])cc3n2O)cc1` [I]: the “Cytotoxicity at 50 μg/mL Yersinia” value in series [2] is recorded as “* (key: *: percent cytotoxicity above 75% at 50 μg/mL; **: cytotoxicities below 75% at 50 μg/mL)”. Also, the EC50 in series [3] was above 25.1 µM. Regarding `O=C(Nc1ccc(-c2nc3ccncc3n2O)cc1)c1ccc(F)cc1` [AX], in series [2], the “Cytotoxicity at 50 μg/mL Yersinia” value is on record as “* (key: *: percent cytotoxicity above 75% at 50 μg/mL; **: cytotoxicities below 75% at 50 μg/mL)”. With `O=C(Nc1ccc(-c2nc3ccc([N+](=O)[O-])cc3n2O)c(OCP(=O)(O)O)c1)c1ccc(F)cc1` [Compound AR, [5-(4-Fluoro-benzoylamino)-2-(1-hydroxy-6-nitro-1H-benzoimidazol-2-yl)-phenoxymethyl]-phosphonic Acid], in series [2], the “Cytotoxicity at 50 μg/mL Yersinia” value is “* (key: *: percent cytotoxicity above 75% at 50 μg/mL; **: cytotoxicities below 75% at 50 μg/mL)”.

(Values after patent US20090170812A1, “Transcription factor modulating compounds and methods of use thereof” (priority 2006, published 2009).)
